Results published in publication PMC4749975, “Selective binding modes and allosteric inhibitory effects of lupane triterpenes on protein tyrosine phosphatase 1B” (Scientific Reports, 2016).
pIC50, pKi: −log10 of the molar value. Entries after “also recorded” stand apart in the source; their conditions may differ. Like-named read-outs stand apart in the source and are kept apart here.

Assays:
[1] = molecular target: T1, recombinant human TCPTP protein (Homo sapiens, UniProt P17706); test: Inhibiting TCPTP by pNPP phosphatase assay; format: biochemical; details: for Fold changes (TCPTP IC50 / PTP1B IC50): PTP1B IC50 from literature, TCPTP IC50 measured
T1 construct: purchased Abcam Inc (Cambridge, MA) ab42575
T1 sequence (P17706 1-415): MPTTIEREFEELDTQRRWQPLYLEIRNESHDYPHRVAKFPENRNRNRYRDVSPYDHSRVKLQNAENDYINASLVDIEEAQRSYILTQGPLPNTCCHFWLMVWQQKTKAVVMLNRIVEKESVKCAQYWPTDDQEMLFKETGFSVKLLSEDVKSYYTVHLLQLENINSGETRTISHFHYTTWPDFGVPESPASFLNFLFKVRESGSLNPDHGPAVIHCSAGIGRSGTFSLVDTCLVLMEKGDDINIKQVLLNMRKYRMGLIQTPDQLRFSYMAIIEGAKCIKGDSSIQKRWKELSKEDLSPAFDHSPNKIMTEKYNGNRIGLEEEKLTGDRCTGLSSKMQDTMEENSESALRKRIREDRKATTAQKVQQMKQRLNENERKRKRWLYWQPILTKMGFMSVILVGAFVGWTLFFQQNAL

[2] = molecular target: T2, PTP1B (Homo sapiens, UniProt P18031); test: PTP1B inhibition kinetics assay (Lineweaver-Burk, pNPP); format: biochemical; details: Lineweaver-Burk plot; for mode of inhibition of PTP1B: 6 pNPP and 4 compound concentrations
T2 sequence (P18031 1-435): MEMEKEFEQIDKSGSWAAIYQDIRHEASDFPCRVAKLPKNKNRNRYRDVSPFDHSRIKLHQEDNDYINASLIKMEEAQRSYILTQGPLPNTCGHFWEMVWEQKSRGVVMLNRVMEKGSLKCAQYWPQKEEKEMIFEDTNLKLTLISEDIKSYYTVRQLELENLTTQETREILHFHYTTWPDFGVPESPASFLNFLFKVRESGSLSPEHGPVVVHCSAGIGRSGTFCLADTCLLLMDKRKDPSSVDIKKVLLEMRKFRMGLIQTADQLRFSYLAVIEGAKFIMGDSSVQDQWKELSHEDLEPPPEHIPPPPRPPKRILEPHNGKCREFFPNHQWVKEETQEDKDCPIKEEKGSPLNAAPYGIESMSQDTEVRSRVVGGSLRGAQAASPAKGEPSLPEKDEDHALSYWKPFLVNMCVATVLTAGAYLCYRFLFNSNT
Procedure: The Lupeol group was used as a control group. The absorbance at 405 nm was detected by a spectraMAX 384 microplate spectrophotometer twice every minute for a total of 15 min. Michaelis-Menten constant (Km) and maximum velocity (Vmax) of PTP1B were determined via Lineweaver-Burk plots using the GraphPad Prism 5 program (GraphPad Software Inc, La Jolla, CA).

[3] = molecular target: T2, PTP1B; test: Estimation of Ki and binding free energy from experimental IC50 (IC50-to-Ki converter)
[4] = molecular target: T2, PTP1B; details: cited from earlier work; for pIC50: read-out: IC50 PTP1B
[5] = molecular target: T3, PTP1B (Mus musculus, UniProt P35821); test: Immunoprecipitation assay of PTP1B activity in TNFα-treated mHypoE-46 neurons; format: cell-based
T3 construct: endogenous in cells; host or cells: mHypoE-46 mouse hypothalamic neurons
T3 sequence (P35821 1-432): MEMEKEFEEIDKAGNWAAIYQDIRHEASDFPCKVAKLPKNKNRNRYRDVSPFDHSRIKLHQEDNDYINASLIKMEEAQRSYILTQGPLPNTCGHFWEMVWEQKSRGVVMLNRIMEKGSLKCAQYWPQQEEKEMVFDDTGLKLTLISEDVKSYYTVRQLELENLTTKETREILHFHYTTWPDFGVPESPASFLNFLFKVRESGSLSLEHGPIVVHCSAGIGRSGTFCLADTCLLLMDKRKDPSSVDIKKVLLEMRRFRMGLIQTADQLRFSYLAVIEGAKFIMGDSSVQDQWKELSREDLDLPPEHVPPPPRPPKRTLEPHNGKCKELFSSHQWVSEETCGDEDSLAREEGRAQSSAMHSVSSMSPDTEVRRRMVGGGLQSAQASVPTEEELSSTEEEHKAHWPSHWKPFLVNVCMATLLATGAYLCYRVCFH
Procedure: (§1) Mouse hypothalamic cell line (mHypoE-46) neurons were grown in monolayer in Dulbecco’s modified Eagle medium (DMEM) (Sigma D5796, Castle Hill, NSW) with 10% fetal bovine serum (FBS) (SAFC Biosciences Inc, Lenexa, KS) and 1% penicillin/streptomycin. They were maintained at 37 °C with 5% CO2. Prior to treatment, the cell culture medium was replaced with DMEM containing 1% penicillin/streptomycin for 4 h. Murine TNFα was obtained from Sigma-Aldrich (Castle Hill, NSW). Lupeol and betulinic acid were dissolved in Dimethyl sulfoxide (DMSO), then diluted in sterile water, and mixed with serum free cell culture medium. The DMSO concentration was controlled below 0.15%.
Based on the instructions of the Pierce Classic IP Kit (#26146, Thermo Fisher Scientific Inc, IL) with minor modifications, PTP1B was immunoprecipitated using the 25 μg PTP1B antibody (sc-1718, Santa Cruz Biotechnology Inc, Dallas, TX) for 12 h at 4 °C. Immune complexes were isolated by adding the protein G-agarose, washed three times in the phosphatase assay buffer from the EnzoLyte Colorimetric pNPP Protein Phosphatase Assay kit (Anaspec, San Jose, CA), and resuspended in the same buffer. Samples were analysed for the phosphatase activity using the same pNPP assay kit mentioned above.

[6] = tested on: PTP1B; test: Western blot of PTP1B protein expression in mHypoE-46 neurons; format: cell-based, Mouse; details: for PTP1B protein expression: 10 h after TNFα 8 h
Procedure: as §1
The method was described in our previous study with modifications, mHypoE-46 neurons were washed with ice-cold PBS and lysed in NP-40 lysis buffer (Invitrogen Australia Pty Ltd, Mulgrave, VIC) containing a protease inhibitor cocktail, beta-glycerophosphate and phenylmethanesulfonyl fluoride (PMSF) (Sigma, Castle Hill, NSW). Cell lysates were centrifuged at 14000 rpm for 10 min at 4 °C. The supernatants were collected and protein concentrations were determined using the DC assay (Bio-Rad Laboratories, Gladesville, NSW) according to the manufacturer’s instructions. Equal amounts of protein (10 μg) were separated on 4–12% Bis-Tris gels (Bio-Rad Laboratories, Gladesville, NSW,) using SDS-PAGE. Following electrophoresis (120 V for 2 h), the proteins were transferred to polyvinylidene difluoride membranes (100 V for 1 h). Membranes were blocked in 5% bovine serum albumin (BSA), followed by incubation with the primary antibodies PTP1B (sc-1718, 1:500, Santa Cruz Biotechnology Inc, Dallas, TX) in 1% BSA overnight at 4 °C. […] The bands corresponding to the proteins of interest were scanned and densitometrically analysed using the automatic imaging analysis system Quantity One (Bio-Rad Laboratories, Gladesville, NSW). All quantitative analyses were normalised to β-actin.

[7] = pNPP assay, 25 °C, read-out: IC50 TCPTP

Row | pIC50 [1, 7] | Molecule | pIC50 [1] | Fold changes (TCPTP IC50 / PTP1B IC50) [1] [fold] | Km value of PTP1B in presence of compound [2] | Vmax value of PTP1B in presence of compound [2] | mode of inhibition of PTP1B [2] | pKi [3] | pIC50 [4] | mode of inhibition of PTP1B (literature) [4] | also measured
1 |  | C=C(C)[C@@H]1CC[C@]2(CO)CC[C@]3(C)[C@H](CC[C@@H]4[C@@]5(C)CC[C@H](O)C(C)(C)[C@@H]5CC[C@]43C)[C@@H]12 [Betulin, betulin] | 3.93 | 7 | altered Km value | decreased Vmax value | mixed-type inhibition | 4.82 | 4.82 |  | 
2 | 3.91 | C=C(C)[C@@H]1CC[C@]2(C(=O)O)CC[C@]3(C)[C@H](CC[C@@H]4[C@@]5(C)CC[C@H](O)C(C)(C)[C@@H]5CC[C@]43C)[C@@H]12 [Betulinic acid, betulinic acid] |  | 81 | constant Km value | decreased Vmax value | non-competitive inhibitor |  |  |  | inhibition of PTP1B enzyme activity ([5]; betulinic acid 7.5 μM, 10 h after TNFα 8 h): significantly inhibited; inhibition at 7.5 µM ([5]; betulinic acid 7.5 μM, 10 h after TNFα 8 h, read-out: inhibition of PTP1B enzyme activity): 35%; PTP1B protein expression ([6]; betulinic acid 7.5 μM): slightly decreased; also recorded: do not significantly decrease; pKi ([3]; IC50-to-Ki converter, [E] 0.01, [S] 20000 µM, read-out: Constant of inhibition [Ki]): 5.82
3 | 4.20 | CCc1oc2cc(S(=O)(=O)Nc3ccc(S(=O)(=O)Nc4nccs4)cc3)ccc2c1C(=O)c1cc(Br)c(O)c(Br)c1 [Compound 3, reference compound] |  |  |  |  |  |  |  |  | 
4 |  | C=C(C)[C@@H]1CC[C@]2(C)CC[C@]3(C)[C@H](CC[C@@H]4[C@@]5(C)CC[C@H](O)C(C)(C)[C@@H]5CC[C@]43C)[C@@H]12 [Lupeol, lupeol] | 3.90 | 22 |  |  |  | 5.25 | 5.25 | non-competitive inhibitor | inhibition of PTP1B enzyme activity ([5]; lupeol 28 μM, 10 h after TNFα 8 h): significantly inhibited; inhibition at 28 µM ([5]; lupeol 28 μM, 10 h after TNFα 8 h, read-out: inhibition of PTP1B enzyme activity): 35%; PTP1B protein expression ([6]; lupeol 28 μM): slightly decreased; also recorded: do not significantly decrease
5 |  | TNFα |  |  |  |  |  |  |  |  | increase of PTP1B activity ([5]; TNFα 20 ng/ml, 8 h): 1.5 fold; increase of PTP1B expression ([6]; TNFα 20 ng/ml, 8 h): 1.75 fold

Row | Molecule | pIC50 [1, 7] | pIC50 [1] | Fold changes (TCPTP IC50 / PTP1B IC50) [1] [fold] | Km value of PTP1B in presence of compound [2] | Vmax value of PTP1B in presence of compound [2] | mode of inhibition of PTP1B [2] | pKi [3] | pIC50 [4] | mode of inhibition of PTP1B (literature) [4] | also measured
6 | C=C(C)[C@@H]1CC[C@]2(C)CC[C@]3(C)[C@H](CC[C@@H]4[C@@]5(C)CCC(=O)C(C)(C)[C@@H]5CC[C@]43C)[C@@H]12 [Lupenone, lupenone] | 4.04 |  | 6 |  |  |  |  | 4.86 | non-competitive inhibitors | 
